Tested on: NG108-15 cells (a neuroblastoma-glioma hybrid cell line)
Test: In vitro bioassay in NG108-15 cells stimulated by prostaglandin E1
Assay type: cell-based
Conditions: read-out: IC50 in NG108-15 cells stimulated by PGE1

For `CC(C)C[C@H](NC(=O)[C@H](Cc1ccccc1)NC(=O)CNC(=O)[C@@H](C)NC(=O)[C@@H](N)Cc1ccc(O)cc1)C(=O)NCCNC(=O)[C@H](CC(C)C)NC(=O)[C@H](Cc1ccccc1)NC(=O)CNC(=O)[C@@H](C)NC(=O)[C@@H](N)Cc1ccc(O)cc1` [DPE2], the IC50 was roughly 0.15 nM.

Reference: patent US4468383A, “Dimeric enkephalins” (The United States of America as represented by the …, priority 1982, dated 1984)
